The target of the first assay is αvβ1 integrin (αvβ1 expressing CHO cells) (Homo sapiens (Human), UniProt P05556+P06756). As to the kind of experiment: Cell adhesion assay: inhibition of αvβ1 expressing CHO cells attaching to TGFβ1LAP. Format: cell-based. The settings on record: 1 h at 37° C., crystal violet absorbance 595 nm, read-out: αvβ1 Inhibition IC50 (nM)-range. In short, it runs like this:
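Plates coated with 2 ug/ml TGFβ1LAP and blocked with 2% BSA; cells (1.0×10^6 cells/ml in DMEM) incubated with compound 1 hour at 37° C. Non-adherent cells removed by centrifugation; adherent cells stained with crystal violet, absorbance 595 nm, IC50 by four-parameter non-linear regression.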
recombinant human integrin αvβ1, sequence (P06756 31-889): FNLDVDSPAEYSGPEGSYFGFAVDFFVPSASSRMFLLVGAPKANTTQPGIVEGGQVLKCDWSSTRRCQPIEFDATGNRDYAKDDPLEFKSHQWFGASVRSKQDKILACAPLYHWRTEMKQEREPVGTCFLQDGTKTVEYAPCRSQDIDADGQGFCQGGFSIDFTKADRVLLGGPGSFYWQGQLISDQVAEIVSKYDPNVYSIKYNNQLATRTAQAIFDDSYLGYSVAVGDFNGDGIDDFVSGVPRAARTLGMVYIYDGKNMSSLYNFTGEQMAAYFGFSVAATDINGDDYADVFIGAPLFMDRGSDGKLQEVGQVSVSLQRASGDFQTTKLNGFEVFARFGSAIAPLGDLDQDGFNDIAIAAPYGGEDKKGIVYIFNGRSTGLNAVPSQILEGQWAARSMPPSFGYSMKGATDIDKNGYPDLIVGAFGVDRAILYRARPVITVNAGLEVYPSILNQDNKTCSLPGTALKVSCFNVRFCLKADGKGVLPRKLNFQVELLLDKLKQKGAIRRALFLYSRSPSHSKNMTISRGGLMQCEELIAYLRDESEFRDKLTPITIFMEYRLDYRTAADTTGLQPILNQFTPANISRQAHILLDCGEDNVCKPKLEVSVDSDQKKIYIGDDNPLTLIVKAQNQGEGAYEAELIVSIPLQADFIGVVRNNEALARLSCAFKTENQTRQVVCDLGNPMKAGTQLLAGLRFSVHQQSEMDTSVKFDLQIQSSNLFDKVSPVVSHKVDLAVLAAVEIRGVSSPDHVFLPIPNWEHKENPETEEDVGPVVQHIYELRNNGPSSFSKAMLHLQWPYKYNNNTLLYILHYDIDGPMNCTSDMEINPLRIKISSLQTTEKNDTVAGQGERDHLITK
recombinant human integrin αvβ1, sequence (P06756 891-992 partner): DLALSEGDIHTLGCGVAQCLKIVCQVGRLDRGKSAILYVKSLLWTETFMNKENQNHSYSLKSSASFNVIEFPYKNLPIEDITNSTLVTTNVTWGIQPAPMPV
recombinant human integrin αvβ1, sequence (P05556 21-728): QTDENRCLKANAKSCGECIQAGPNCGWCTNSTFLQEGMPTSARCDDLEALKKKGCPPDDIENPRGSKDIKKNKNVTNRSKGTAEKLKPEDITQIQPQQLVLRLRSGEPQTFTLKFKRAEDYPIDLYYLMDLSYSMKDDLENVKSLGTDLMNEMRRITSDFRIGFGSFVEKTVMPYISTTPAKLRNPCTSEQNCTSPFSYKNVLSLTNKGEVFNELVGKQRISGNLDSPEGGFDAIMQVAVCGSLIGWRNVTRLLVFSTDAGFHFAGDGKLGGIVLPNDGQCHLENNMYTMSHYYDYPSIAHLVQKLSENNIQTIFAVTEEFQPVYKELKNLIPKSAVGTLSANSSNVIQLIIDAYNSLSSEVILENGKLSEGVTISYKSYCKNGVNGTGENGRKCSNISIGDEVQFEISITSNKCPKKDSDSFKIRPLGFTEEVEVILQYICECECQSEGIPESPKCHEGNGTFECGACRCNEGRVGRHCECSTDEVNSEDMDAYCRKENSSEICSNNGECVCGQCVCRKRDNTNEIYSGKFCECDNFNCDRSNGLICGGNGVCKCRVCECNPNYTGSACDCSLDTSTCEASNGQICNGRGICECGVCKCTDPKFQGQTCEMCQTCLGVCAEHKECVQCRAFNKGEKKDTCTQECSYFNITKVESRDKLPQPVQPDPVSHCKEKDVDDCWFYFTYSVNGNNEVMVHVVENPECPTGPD
αvβ1 integrin (αvβ1 expressing CHO cells), sequence (P06756 31-889): as the sequence (P06756 31-889) above
αvβ1 integrin (αvβ1 expressing CHO cells), sequence (P06756 891-1048 partner): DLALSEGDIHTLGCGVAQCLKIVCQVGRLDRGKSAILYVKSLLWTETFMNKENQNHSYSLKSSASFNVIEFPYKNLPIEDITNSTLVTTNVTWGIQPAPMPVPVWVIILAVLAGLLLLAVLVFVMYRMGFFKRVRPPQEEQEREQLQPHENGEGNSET
αvβ1 integrin (αvβ1 expressing CHO cells), sequence (P05556 21-798): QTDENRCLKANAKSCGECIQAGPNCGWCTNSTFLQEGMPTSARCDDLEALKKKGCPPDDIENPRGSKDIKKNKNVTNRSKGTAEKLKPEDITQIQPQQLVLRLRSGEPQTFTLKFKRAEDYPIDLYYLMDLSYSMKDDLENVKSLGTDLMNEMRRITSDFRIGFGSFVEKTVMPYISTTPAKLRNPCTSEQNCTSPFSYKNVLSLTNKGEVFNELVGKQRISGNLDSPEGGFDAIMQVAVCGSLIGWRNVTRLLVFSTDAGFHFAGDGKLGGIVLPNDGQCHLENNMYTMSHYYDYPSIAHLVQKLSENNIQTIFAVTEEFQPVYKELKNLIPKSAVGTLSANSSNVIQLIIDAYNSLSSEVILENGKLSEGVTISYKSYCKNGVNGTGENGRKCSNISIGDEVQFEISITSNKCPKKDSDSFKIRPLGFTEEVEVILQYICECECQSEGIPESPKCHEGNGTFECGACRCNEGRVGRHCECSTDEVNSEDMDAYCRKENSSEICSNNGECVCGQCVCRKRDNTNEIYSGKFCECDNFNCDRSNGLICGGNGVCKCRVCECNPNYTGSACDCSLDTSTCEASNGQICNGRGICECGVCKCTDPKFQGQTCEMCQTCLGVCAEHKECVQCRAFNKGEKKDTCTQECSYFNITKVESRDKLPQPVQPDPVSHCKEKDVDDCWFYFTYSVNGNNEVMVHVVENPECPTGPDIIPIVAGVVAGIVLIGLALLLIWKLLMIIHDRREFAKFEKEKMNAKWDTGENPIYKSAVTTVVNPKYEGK
Consider `Cn1ncc2ccc(C(=O)NC(CCCCCCCc3ccc4c(n3)NCCC4)C(=O)O)cc21` (stereo not drawn) [Compound 81, 2-(1-methyl-1H-indazole-6-carboxamido)-9-(5,6,7,8-tetrahydro-1,8-naphthyridin-2-yl)nonanoic acid], for which the IC50 fell in the range of 50 to 250 nM.

The next assay has as its target recombinant human integrin αvβ1 (Homo sapiens (Human), UniProt P05556+P06756). As to the kind of experiment: Solid phase integrin αvβ1 binding assay (fibronectin). Conditions: recombinant human integrin αvβ1 coated plate, recombinant fibronectin 2 ug/ml, 2 hours at 25° C., read-out: αvβ1 Inhibition IC50 (nM)-range. As to the method: Example B2—Solid Phase Integrin αvβ1 Binding Assay
Microplates were coated with recombinant human integrin αvβ1 (2 ug/ml) in PBS (100 ul/well 4° C., overnight). The coating solution was removed, washed with PBS. Plate was blocked with 200 ul/well of Block Buffer (2% BSA in PBS) at 37° C. for 1 h. Dilutions of testing compounds and recombinant fibronectin (2 ug/ml) in binding and washing buffer (50 mM Tris-HCl, ph7.5; 0.1% BSA, 1 mM MnCl2; NaCl 150 mM; 0.02% Tween-20; 1 mM CaCl2); 1 mM MgCl2) were added. The plate was incubated for 2 hours at 25° C., washed, and incubated for 1 hour with Biotin-Anti-fibronectin. Bound antibody was detected by peroxidase-conjugated streptavidin. The IC50 values for testing compounds were calculated by a four-parameter logistic regression.
The compounds tested were compound samples prepared according to procedures described in the Synthetic Examples section, with the stereochemical purity as indicated in the Examples. The compounds tested were predominantly S-configuration at the alpha carbon of the amino acid scaffold, except for compounds 123, 124, and 125 which were predominantly R-configuration at the alpha carbon of the amino acid scaffold.
Consider `Cn1ncc2ccc(C(=O)NC(CCCCCCCc3ccc4c(n3)NCCC4)C(=O)O)cc21` (stereo not drawn) [Compound 81, 2-(1-methyl-1H-indazole-6-carboxamido)-9-(5,6,7,8-tetrahydro-1,8-naphthyridin-2-yl)nonanoic acid], for which the IC50 is less than 50 nM.

Regarding `O=C(N[C@@H](CCCCCCCc1ccc2c(n1)NCCC2)C(=O)O)c1cc(OC(F)(F)F)ccc1Cl` [Compound 118], the IC50 is less than 50 nM.

Take `O=C(NC(CCCCCCCc1ccc2c(n1)NCCC2)C(=O)O)c1cccc(F)c1` (stereo not drawn) [Compound 92]: the IC50 is less than 50 nM.

For `O=C(NC(CCCCCCCc1ccc2c(n1)NCCC2)C(=O)O)c1ccc(F)cc1` (stereo not drawn) [Compound 88], the IC50 is less than 50 nM.

For the compound `COc1ccc(C(=O)NC(CCCCCCCc2ccc3c(n2)NCCC3)C(=O)O)cc1` (stereo not drawn) [Compound 89], the IC50 was less than 50 nM.

For the compound `N#Cc1cccc(C(=O)NC(CCCCCCCc2ccc3c(n2)NCCC3)C(=O)O)c1` (stereo not drawn) [Compound 94], the IC50 was less than 50 nM.

With `O=C(NC(CCCCCCCc1ccc2c(n1)NCCC2)C(=O)O)c1c(Cl)cccc1Cl` (stereo not drawn) [Compound 65, 2-(2,6-dichlorobenzamido)-9-(5,6,7,8-tetrahydro-1,8-naphthyridin-2-yl)nonanoic acid], the IC50 was less than 50 nM.

`Cc1cc(C)n(-c2cccc(C(=O)N[C@@H](CCCCCCCc3ccc4c(n3)NCCC4)C(=O)O)c2)n1` [Compound 119]: the IC50 is less than 50 nM.

In the case of `O=C(NC(CCCCCCCc1ccc2c(n1)NCCC2)C(=O)O)c1cccc(Cl)c1` (stereo not drawn) [Compound 91], the IC50 was less than 50 nM.

As to `O=C(N[C@@H](CCCCCCCc1ccc2c(n1)NCCC2)C(=O)O)c1cc(F)cc(C(F)(F)F)c1` [Compound 122], the IC50 is less than 50 nM.

On to `O=C(NC(CN1CCC(OCCCc2ccc3c(n2)NCCC3)C1)C(=O)O)c1c(Cl)cccc1Cl` (stereo not drawn) [Compound 75, 2-(2,6-dichlorobenzamido)-3-(3-(3-(5,6,7,8-tetrahydro-1,8-naphthyridin-2-yl)propoxy)pyrrolidin-1-yl)propanoic acid], for which the IC50 was in the range of 250 to 1000 nM.

`N#Cc1ccc(C(=O)NC(CCCCCCCc2ccc3c(n2)NCCC3)C(=O)O)cc1` (stereo not drawn) [Compound 90]: the IC50 was less than 50 nM.

As to `Cn1cc(-c2cccc(C(=O)N[C@H](CCCCCCCc3ccc4c(n3)NCCC4)C(=O)O)c2)cn1` [Compound 123], the IC50 was more than 1000 nM.

Turning to `COc1cccc(C(=O)NC(CCCCCCCc2ccc3c(n2)NCCC3)C(=O)O)c1` (stereo not drawn) [Compound 93], the IC50 was less than 50 nM.

For `O=C(NC(CCCCCCCc1ccc2c(n1)NCCC2)C(=O)O)c1ccc(Cl)cc1` (stereo not drawn) [Compound 87], the IC50 is less than 50 nM.

Consider `O=C(N[C@@H](CCCCCCCc1ccc2c(n1)NCCC2)C(=O)O)c1cccc(F)c1Cl` [Compound 121], for which the IC50 is less than 50 nM.

Turning to `O=C(N[C@H](CCCCCCCc1ccc2c(n1)NCCC2)C(=O)O)c1cc(F)cc(C(F)(F)F)c1` [Compound 125], the IC50 is more than 1000 nM.

Take `O=C(N[C@@H](CCCCCCCc1ccc2c(n1)NCCC2)C(=O)O)c1cccc(-c2cncs2)c1` [Compound 126]: the IC50 was 50 to 250 nM.

`CC(C)Oc1ccc(C(=O)N[C@@H](CCCCCCCc2ccc3c(n2)NCCC3)C(=O)O)c(Cl)c1` [Compound 117]: the IC50 is less than 50 nM.

`O=C(NC(CCCCCCCc1ccc2c(n1)NCCC2)C(=O)O)c1ccccc1Cl` (stereo not drawn) [Compound 96]: the IC50 is less than 50 nM.

In the case of `O=C(N[C@H](CCCCCCCc1ccc2c(n1)NCCC2)C(=O)O)c1cccc(-c2cncs2)c1` [Compound 124], the IC50 is more than 1000 nM.

On to `O=C(NC(CCCCCCCc1ccc2c(n1)NCCC2)C(=O)O)c1ccccc1F` (stereo not drawn) [Compound 95], for which the IC50 was less than 50 nM.

For `O=C(O)C(CCCCCCCc1ccc2c(n1)NCCC2)NC(=O)N1CCn2c(nnc2C(F)(F)F)C1` (stereo not drawn) [Compound 97], the IC50 is less than 50 nM.

By IC50 is commonly meant the concentration at which inhibition is half-maximal.
